Experiments:
Assay in all cases: relative viability (nuclei count vs DMSO), 5 days (fraction); higher = more cells survive
TGX 221 + Alpelisib = compound: CC1=CN2C(=O)C=C(N=C2C(=C1)C(C)NC3=CC=CC=C3)N4CCOCC4 [TGX 221] + Cc1nc(NC(=O)N2CCC[C@H]2C(N)=O)sc1-c1ccnc(C(C)(C)C(F)(F)F)c1 [Alpelisib] (partner 2 µM)
In short: (§1)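 One day after seeding in 1536-well plates, lung cancer cell lines were dosed by pin tool. Dosing was either single-drug or a fixed anchor-drug dose plus five library-drug doses (not always all listed) in √10 steps. After 5 days, nuclei were stained in one fix-and-stain step and counted on 4× images, and relative viability is the nuclei count of treated wells over that of vehicle wells, given as the median of duplicate plates.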

[1] = compound: C1=CC=C(C(=C1)C2=CC=C(C=C2)C3=CSC4=C3C(=C(C(=O)N4)C#N)O)O + Cc1nc(Nc2ncc(C(=O)Nc3c(C)cccc3Cl)s2)cc(N2CCN(CCO)CC2)n1 [Dasatinib] (partner 0.075 µM)
In short: as §1

[2] = compound: O=C(CCCCCCNC(=O)c1cnc(N(c2ccccc2)c2ccccc2)nc1)NO [Ricolinostat] + CS(=O)(=O)N1CCN(Cc2cc3nc(-c4cccc5[nH]ncc45)nc(N4CCOCC4)c3s2)CC1 [Pictilisib] (partner 1 µM)
In short: as §1

[3] = compound: C1=CC=C(C(=C1)C2=CC=C(C=C2)C3=CSC4=C3C(=C(C(=O)N4)C#N)O)O + CS(=O)(=O)CCNCc1ccc(-c2ccc3ncnc(Nc4ccc(OCc5cccc(F)c5)c(Cl)c4)c3c2)o1 [Lapatinib] (partner 2 µM)
In short: as §1

## NCI-H1792
TGX 221 + Alpelisib; first compound 0.08 µM
  relative viability: 0.609
TGX 221 + Alpelisib; first compound 0.253 µM
  relative viability: 0.599
TGX 221 + Alpelisib; first compound 0.8 µM
  relative viability: 0.698
TGX 221 + Alpelisib; first compound 2.53 µM
  relative viability: 0.511
TGX 221 + Alpelisib; first compound 8 µM
  relative viability: 0.432
[1]; first compound 0.253 µM
  relative viability: 0.803
[1]; first compound 2.53 µM
  relative viability: 0.722
[1]; first compound 8 µM
  relative viability: 0.508
[2]; first compound 0.08 µM
  relative viability: 0.248
[2]; first compound 0.253 µM
  relative viability: 0.281
[2]; first compound 0.8 µM
  relative viability: 0.243
[2]; first compound 2.53 µM
  relative viability: 0.169
[3]; first compound 0.253 µM
  relative viability: 0.543
[3]; first compound 0.8 µM
  relative viability: 0.854
[3]; first compound 2.53 µM
  relative viability: 0.92
[3]; first compound 8 µM
  relative viability: 0.658
